Data: the supplement of paper PMC10307832

Columns and labels:
Assay in all cases: relative viability (nuclei count vs DMSO), 5 days (fraction); higher = more cells survive
A-427 = tested on: A-427
Outline: (§1)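 One day after seeding in 1536-well plates, lung cancer cell lines were dosed by pin tool. Dosing was either single-drug or a fixed anchor-drug dose plus five library-drug doses (not always all listed) in √10 steps. After 5 days, nuclei were stained in one fix-and-stain step and counted on 4× images, and relative viability is the nuclei count of treated wells over that of vehicle wells, given as the median of duplicate plates.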

ABC-1 = tested on: ABC-1
Outline: as §1

COR-L23 = tested on: COR-L23
Outline: as §1

EMC-BAC-2 = tested on: EMC-BAC-2
Outline: as §1

HARA = tested on: HARA
Outline: as §1

HOP-62 = tested on: HOP-62
Outline: as §1

LK-2 = tested on: LK-2
Outline: as §1

LU99A = tested on: LU99A
Outline: as §1

LXF-289 = tested on: LXF-289
Outline: as §1

NCI-H1792 = tested on: NCI-H1792
Outline: as §1

NCI-H1793 = tested on: NCI-H1793
Outline: as §1

NCI-H1944 = tested on: NCI-H1944
Outline: as §1

NCI-H1993 = tested on: NCI-H1993
Outline: as §1

NCI-H2009 = tested on: NCI-H2009
Outline: as §1

NCI-H2170 = tested on: NCI-H2170
Outline: as §1

NCI-H2228 = tested on: NCI-H2228
Outline: as §1

NCI-H3122 = tested on: NCI-H3122
Outline: as §1

NCI-H596 = tested on: NCI-H596
Outline: as §1

NCI-H727 = tested on: NCI-H727
Outline: as §1

PC-3 [JPC-3] = tested on: PC-3 [JPC-3]
Outline: as §1

SK-LU-1 = tested on: SK-LU-1
Outline: as §1

SK-MES-1 = tested on: SK-MES-1
Outline: as §1

SW 1573 = tested on: SW 1573
Outline: as §1

SW 900 = tested on: SW 900
Outline: as §1

Which results are given for `COc1cc(N2CCC(C(N)=O)CC2)ccc1Nc1nc(N)c(Cl)c(Nc2ccccc2S(=O)(=O)C(C)C)n1` [HG-5-88-01] + COc1cccc2cc(-c3nc([C@H]4CC[C@H](C(=O)O)CC4)n4ncnc(N)c34)[nH]c12 [OSI-027] (partner 0.5 µM)?
relative viability (A-427; first compound 0.04 µM): 0.441; relative viability (A-427; first compound 0.1265 µM): 0.533; relative viability (A-427; first compound 0.4 µM): 0.524; relative viability (A-427; first compound 1.265 µM): 0.416; relative viability (A-427; first compound 4 µM): 0.283; relative viability (ABC-1; first compound 0.04 µM): 0.468; relative viability (ABC-1; first compound 0.1265 µM): 0.428; relative viability (ABC-1; first compound 0.4 µM): 0.399; relative viability (ABC-1; first compound 1.265 µM): 0.348; relative viability (ABC-1; first compound 4 µM): 0.293; relative viability (COR-L23; first compound 0.04 µM): 0.772; relative viability (COR-L23; first compound 0.1265 µM): 0.79; relative viability (COR-L23; first compound 0.4 µM): 0.646; relative viability (COR-L23; first compound 1.265 µM): 0.55; relative viability (COR-L23; first compound 4 µM): 0.505; relative viability (EMC-BAC-2; first compound 0.04 µM): 0.361; relative viability (EMC-BAC-2; first compound 0.1265 µM): 0.371; relative viability (EMC-BAC-2; first compound 0.4 µM): 0.326; relative viability (EMC-BAC-2; first compound 1.265 µM): 0.307; relative viability (EMC-BAC-2; first compound 4 µM): 0.251; relative viability (HARA; first compound 0.04 µM): 0.378; relative viability (HARA; first compound 0.1265 µM): 0.578; relative viability (HARA; first compound 0.4 µM): 0.437; relative viability (HARA; first compound 1.265 µM): 0.121; relative viability (HARA; first compound 4 µM): 0.144; relative viability (HOP-62; first compound 0.04 µM): 0.726; relative viability (HOP-62; first compound 0.1265 µM): 0.949; relative viability (HOP-62; first compound 0.4 µM): 0.828; relative viability (HOP-62; first compound 1.265 µM): 0.856; relative viability (HOP-62; first compound 4 µM): 0.737; relative viability (LK-2; first compound 0.04 µM): 0.173; relative viability (LK-2; first compound 0.1265 µM): 0.189; relative viability (LK-2; first compound 0.4 µM): 0.15; relative viability (LK-2; first compound 1.265 µM): 0.173; relative viability (LK-2; first compound 4 µM): 0.175; relative viability (LU99A; first compound 0.04 µM): 0.245; relative viability (LU99A; first compound 0.1265 µM): 0.316; relative viability (LU99A; first compound 0.4 µM): 0.286; relative viability (LU99A; first compound 1.265 µM): 0.279; relative viability (LU99A; first compound 4 µM): 0.263; relative viability (LXF-289; first compound 0.04 µM): 0.755; relative viability (LXF-289; first compound 0.1265 µM): 0.815; relative viability (LXF-289; first compound 0.4 µM): 0.77; relative viability (LXF-289; first compound 1.265 µM): 0.635; relative viability (LXF-289; first compound 4 µM): 0.337; relative viability (NCI-H1792; first compound 0.04 µM): 0.809; relative viability (NCI-H1792; first compound 0.1265 µM): 0.823; relative viability (NCI-H1792; first compound 0.4 µM): 0.794; relative viability (NCI-H1792; first compound 4 µM): 0.574; relative viability (NCI-H1793; first compound 0.1265 µM): 0.269; relative viability (NCI-H1793; first compound 0.4 µM): 0.236; relative viability (NCI-H1793; first compound 4 µM): 0.177; relative viability (NCI-H1944; first compound 0.04 µM): 0.386; relative viability (NCI-H1944; first compound 0.1265 µM): 0.391; relative viability (NCI-H1944; first compound 0.4 µM): 0.422; relative viability (NCI-H1944; first compound 1.265 µM): 0.297; relative viability (NCI-H1944; first compound 4 µM): 0.251; relative viability (NCI-H1993; first compound 0.04 µM): 0.536; relative viability (NCI-H1993; first compound 0.1265 µM): 0.504; relative viability (NCI-H1993; first compound 0.4 µM): 0.52; relative viability (NCI-H1993; first compound 1.265 µM): 0.532; relative viability (NCI-H1993; first compound 4 µM): 0.536; relative viability (NCI-H2009; first compound 0.04 µM): 0.565; relative viability (NCI-H2009; first compound 0.1265 µM): 0.585; relative viability (NCI-H2009; first compound 0.4 µM): 0.423; relative viability (NCI-H2009; first compound 1.265 µM): 0.444; relative viability (NCI-H2009; first compound 4 µM): 0.353; relative viability (NCI-H2170; first compound 0.04 µM): 0.716; relative viability (NCI-H2170; first compound 0.1265 µM): 0.764; relative viability (NCI-H2170; first compound 0.4 µM): 0.721; relative viability (NCI-H2170; first compound 1.265 µM): 0.238; relative viability (NCI-H2170; first compound 4 µM): 0.601; relative viability (NCI-H2228; first compound 0.04 µM): 0.241; relative viability (NCI-H2228; first compound 0.1265 µM): 0.148; relative viability (NCI-H2228; first compound 0.4 µM): 0.181; relative viability (NCI-H2228; first compound 1.265 µM): 0.169; relative viability (NCI-H2228; first compound 4 µM): 0.172; relative viability (NCI-H3122; first compound 0.04 µM): 0.226; relative viability (NCI-H3122; first compound 0.1265 µM): 0.213; relative viability (NCI-H3122; first compound 0.4 µM): 0.114; relative viability (NCI-H3122; first compound 1.265 µM): 0.149; relative viability (NCI-H3122; first compound 4 µM): 0.129; relative viability (NCI-H596; first compound 0.04 µM): 0.61; relative viability (NCI-H596; first compound 0.1265 µM): 0.693; relative viability (NCI-H596; first compound 0.4 µM): 0.729; relative viability (NCI-H596; first compound 1.265 µM): 0.59; relative viability (NCI-H596; first compound 4 µM): 0.393; relative viability (NCI-H727; first compound 0.04 µM): 0.423; relative viability (NCI-H727; first compound 0.1265 µM): 0.619; relative viability (NCI-H727; first compound 0.4 µM): 0.493; relative viability (NCI-H727; first compound 1.265 µM): 0.424; relative viability (NCI-H727; first compound 4 µM): 0.355; relative viability (PC-3 [JPC-3]; first compound 0.04 µM): 0.701; relative viability (PC-3 [JPC-3]; first compound 0.1265 µM): 0.759; relative viability (PC-3 [JPC-3]; first compound 0.4 µM): 0.721; relative viability (PC-3 [JPC-3]; first compound 1.265 µM): 0.543; relative viability (PC-3 [JPC-3]; first compound 4 µM): 0.577; relative viability (SK-LU-1; first compound 0.04 µM): 0.292; relative viability (SK-LU-1; first compound 0.1265 µM): 0.34; relative viability (SK-LU-1; first compound 0.4 µM): 0.278; relative viability (SK-LU-1; first compound 1.265 µM): 0.235; relative viability (SK-LU-1; first compound 4 µM): 0.174; relative viability (SK-MES-1; first compound 0.04 µM): 0.603; relative viability (SK-MES-1; first compound 0.1265 µM): 0.569; relative viability (SK-MES-1; first compound 0.4 µM): 0.492; relative viability (SK-MES-1; first compound 1.265 µM): 0.331; relative viability (SK-MES-1; first compound 4 µM): 0.4; relative viability (SW 1573; first compound 0.04 µM): 0.624; relative viability (SW 1573; first compound 0.1265 µM): 0.609; relative viability (SW 1573; first compound 0.4 µM): 0.359; relative viability (SW 1573; first compound 1.265 µM): 0.306; relative viability (SW 1573; first compound 4 µM): 0.375; relative viability (SW 900; first compound 0.04 µM): 0.505; relative viability (SW 900; first compound 0.1265 µM): 0.646; relative viability (SW 900; first compound 0.4 µM): 0.6; relative viability (SW 900; first compound 1.265 µM): 0.57; relative viability (SW 900; first compound 4 µM): 0.381
